Data from ChEMBL document CHEMBL6096703 (J Med Chem, 2025).
Calls of active or inactive are those of the source. The calls are words filed in the database; no cut-off is given here.

Columns and labels:
[1] = Sub-acute toxicity in Kunming mouse assessed as change CK level at 30 to 100 mg/kg administered via gavage once a day for 14 days; assay type: organism-based; settings: in vivo, po, 336 h, dose 30-100 mg/kg, time 14 day
[2] = Sub-acute toxicity in Kunming mouse assessed as change CK level at 100 to 300 mg/kg administered via gavage for 14 days; assay type: organism-based; settings: in vivo, po, 336 h, dose 100-300 mg/kg, time 14 day
[3] = Half life in male Balb/c mouse at 1 mg/kg, po measured upto 96 hrs by LC-MS/MS analysis; assay type: ADME, organism-based; settings: male, Balb/c, in vivo
[4] = Acute toxicity in Kunming mouse assessed as change in heart structure at 300 mg/kg administered via gavage for 14 days by H and E staining based analysis; assay type: organism-based; settings: in vivo, po, 336 h, time 14 day
[5] = Acute toxicity in Kunming mouse assessed as change in liver structure at 300 mg/kg administered via gavage for 14 days by H and E staining based analysis; assay type: organism-based; settings: in vivo, po, 336 h, time 14 day
[6] = Apparent volume of distribution in male Balb/c mouse at 1 mg/kg, po measured upto 96 hrs by LC-MS/MS analysis; assay type: ADME, organism-based; settings: in vivo
[7] = Acute toxicity in Kunming mouse assessed as change in cellular morphology of lung at 100 mg/kg administered once a day via gavage for 14 days by H and E staining based analysis; assay type: organism-based; settings: in vivo, po, 336 h, time 14 day
[8] = Apparent volume of distribution in male Balb/c mouse at 1 mg/kg, iv measured upto 96 hrs by LC-MS/MS analysis; assay type: ADME, organism-based; settings: male, Balb/c, in vivo, read-out: Vz
[9] = Drug concentration in brain of male Balb/c mouse at 10 mg/kg, po measured at 6 hr postdose; assay type: ADME, organism-based; settings: read-out: Ct
[10] = Half life in male Balb/c mouse at 1 mg/kg, iv measured upto 96 hrs by LC-MS/MS analysis; assay type: ADME, organism-based; settings: male, Balb/c, in vivo
[11] = Acute toxicity in Kunming mouse assessed as change in cellular morphology of kidney at 100 mg/kg administered once a day via gavage for 14 days by H and E staining based analysis; assay type: organism-based; settings: in vivo, po, 336 h, time 14 day
[12] = Drug concentration in brain of male Balb/c mouse at 10 mg/kg, po measured at 1 hr postdose; assay type: ADME, organism-based; settings: read-out: Ct
[13] = Cmax in male Balb/c mouse at 1 mg/kg, po measured upto 96 hrs by LC-MS/MS analysis; assay type: ADME, organism-based; settings: in vivo
[14] = target: Poly [ADP-ribose] polymerase 1 (Homo sapiens, UniProt P09874); assay: Inhibition of PARP1 (unknown origin) at 1 nM preincubated with compound for 10 mins followed by DNA and NAD+ addition and measured after 60 mins by chemiluminescence based envision reader analysis relative to control; settings: time 70.0 min
Poly [ADP-ribose] polymerase 1, sequence (P09874 whole entry): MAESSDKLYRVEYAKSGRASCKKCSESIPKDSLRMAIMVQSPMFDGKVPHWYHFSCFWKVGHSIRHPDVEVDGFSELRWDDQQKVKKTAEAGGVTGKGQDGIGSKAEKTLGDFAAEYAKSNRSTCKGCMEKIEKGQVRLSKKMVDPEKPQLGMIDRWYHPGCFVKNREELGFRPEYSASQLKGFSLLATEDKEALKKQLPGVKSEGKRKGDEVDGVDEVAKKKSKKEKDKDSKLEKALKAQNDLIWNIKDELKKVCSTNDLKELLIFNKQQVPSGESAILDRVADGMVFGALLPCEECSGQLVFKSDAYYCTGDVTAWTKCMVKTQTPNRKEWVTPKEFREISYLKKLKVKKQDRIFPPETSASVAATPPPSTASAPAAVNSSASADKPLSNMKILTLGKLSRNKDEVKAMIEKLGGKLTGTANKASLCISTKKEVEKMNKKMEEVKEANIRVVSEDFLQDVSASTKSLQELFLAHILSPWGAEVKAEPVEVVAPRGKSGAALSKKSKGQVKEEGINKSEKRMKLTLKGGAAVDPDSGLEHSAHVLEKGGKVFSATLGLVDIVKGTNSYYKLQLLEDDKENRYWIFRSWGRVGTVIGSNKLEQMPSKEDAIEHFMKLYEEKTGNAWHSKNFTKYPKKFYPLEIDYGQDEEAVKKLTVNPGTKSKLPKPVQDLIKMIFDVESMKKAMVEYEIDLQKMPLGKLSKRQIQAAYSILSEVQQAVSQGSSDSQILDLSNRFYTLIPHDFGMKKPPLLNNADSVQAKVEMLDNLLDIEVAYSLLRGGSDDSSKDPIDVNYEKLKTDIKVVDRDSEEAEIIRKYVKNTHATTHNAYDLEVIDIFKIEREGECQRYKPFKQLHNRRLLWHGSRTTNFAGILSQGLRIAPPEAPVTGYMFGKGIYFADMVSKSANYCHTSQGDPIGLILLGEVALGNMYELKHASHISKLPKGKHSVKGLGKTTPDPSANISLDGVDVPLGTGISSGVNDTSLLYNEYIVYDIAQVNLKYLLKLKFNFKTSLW

[15] = Tmax in male Balb/c mouse at 1 mg/kg, po measured upto 96 hrs by LC-MS/MS analysis; assay type: ADME, organism-based; settings: in vivo
[16] = Cmax in male Balb/c mouse at 1 mg/kg, iv measured upto 96 hrs by LC-MS/MS analysis; assay type: ADME, organism-based; settings: in vivo
[17] = Sub-acute toxicity in Kunming mouse assessed as change CREA2 level at 100 to 300 mg/kg administered via gavage for 14 days; assay type: organism-based; settings: in vivo, po, 336 h, dose 100-300 mg/kg, time 14 day
[18] = Oral bioavailability in male Balb/c mouse at 1 mg/kg measured upto 96 hrs by LC-MS/MS analysis; assay type: ADME, organism-based; settings: in vivo
[19] = Sub-acute toxicity in Kunming mouse assessed as change ASTL level at 100 to 300 mg/kg administered via gavage for 14 days; assay type: organism-based; settings: in vivo, po, 336 h, dose 100-300 mg/kg, time 14 day
[20] = Acute toxicity in Kunming mouse assessed as change in cellular morphology of spleen at 100 mg/kg administered once a day via gavage for 14 days by H and E staining based analysis; assay type: organism-based; settings: in vivo, po, 336 h, time 14 day
[21] = Sub-acute toxicity in Kunming mouse assessed as change ALB2 level at 100 to 300 mg/kg administered via gavage for 14 days; assay type: organism-based; settings: in vivo, po, 336 h, dose 100-300 mg/kg, time 14 day
[22] = target: Poly [ADP-ribose] polymerase 2 (Homo sapiens, UniProt Q9UGN5); assay: Inhibition of PARP2 (unknown origin) at 1 uM preincubated with compound for 10 mins followed by DNA and NAD+ addition and measured after 60 mins by chemiluminescence based envision reader analysis relative to control; settings: time 70.0 min
Poly [ADP-ribose] polymerase 2, sequence (Q9UGN5 whole entry): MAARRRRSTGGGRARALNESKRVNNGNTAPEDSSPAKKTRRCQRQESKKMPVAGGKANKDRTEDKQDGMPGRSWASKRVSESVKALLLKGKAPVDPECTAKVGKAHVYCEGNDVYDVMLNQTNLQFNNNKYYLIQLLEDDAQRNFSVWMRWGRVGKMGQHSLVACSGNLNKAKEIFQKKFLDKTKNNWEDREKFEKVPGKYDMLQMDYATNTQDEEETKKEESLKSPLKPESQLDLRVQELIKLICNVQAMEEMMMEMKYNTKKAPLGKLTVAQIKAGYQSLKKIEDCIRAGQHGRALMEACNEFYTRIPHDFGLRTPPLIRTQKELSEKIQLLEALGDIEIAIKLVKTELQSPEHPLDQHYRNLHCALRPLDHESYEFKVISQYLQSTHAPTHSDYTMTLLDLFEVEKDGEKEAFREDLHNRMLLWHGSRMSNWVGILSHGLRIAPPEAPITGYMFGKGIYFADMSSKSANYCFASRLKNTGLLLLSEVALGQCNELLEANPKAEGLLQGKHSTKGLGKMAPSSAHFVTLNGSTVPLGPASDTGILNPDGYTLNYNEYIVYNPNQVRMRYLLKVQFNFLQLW

[23] = Sub-acute toxicity in Kunming mouse assessed as change LDH2 level at 30 to 100 mg/kg administered via gavage once a day for 14 days; assay type: organism-based; settings: in vivo, po, 336 h, dose 30-100 mg/kg, time 14 day
[24] = Sub-acute toxicity in Kunming mouse assessed as change ALB2 level at 30 to 100 mg/kg administered via gavage once a day for 14 days; assay type: organism-based; settings: in vivo, po, 336 h, dose 30-100 mg/kg, time 14 day
[25] = Sub-acute toxicity in Kunming mouse assessed as change ALTL level at 30 to 100 mg/kg administered via gavage once a day for 14 days; assay type: organism-based; settings: in vivo, po, 336 h, dose 30-100 mg/kg, time 14 day
MDA-MB-436 [26] = assay: Antiproliferative activity against human MDA-MB-436 cells assessed as reduction in cell viability incubated for 7 days by CCK-8 assay; assay type: functional, cell-based; settings: MDA-MB-436, 168 h
[27] = Acute toxicity in Kunming mouse assessed as change in kidney structure at 300 mg/kg administered via gavage for 14 days by H and E staining based analysis; assay type: organism-based; settings: in vivo, po, 336 h, time 14 day
[28] = Clearance in male Balb/c mouse at 1 mg/kg, iv measured upto 96 hrs by LC-MS/MS analysis; assay type: ADME, organism-based; settings: male, Balb/c, in vivo
[29] = Drug concentration in blood of male Balb/c mouse at 10 mg/kg, po measured at 1 hr postdose; assay type: ADME, organism-based; settings: read-out: Ct
[30] = Acute toxicity in Kunming mouse assessed as change in spleen structure at 300 mg/kg administered via gavage for 14 days by H and E staining based analysis; assay type: organism-based; settings: in vivo, po, 336 h, time 14 day
[31] = Clearance in male Balb/c mouse at 1 mg/kg, po measured upto 96 hrs by LC-MS/MS analysis; assay type: ADME, organism-based; settings: male, Balb/c, in vivo
[32] = Sub-acute toxicity in Kunming mouse assessed as change CREA2 level at 30 to 100 mg/kg administered via gavage once a day for 14 days; assay type: organism-based; settings: in vivo, po, 336 h, dose 30-100 mg/kg, time 14 day
[33] = Acute toxicity in Kunming mouse assessed as change in lung structure at 300 mg/kg administered via gavage for 14 days by H and E staining based analysis; assay type: organism-based; settings: in vivo, po, 336 h, time 14 day
[34] = Sub-acute toxicity in Kunming mouse assessed as change LDH2 level at 100 to 300 mg/kg administered via gavage for 14 days; assay type: organism-based; settings: in vivo, po, 336 h, dose 100-300 mg/kg, time 14 day
[35] = Drug concentration in blood of male Balb/c mouse at 10 mg/kg, po measured at 6 hr postdose; assay type: ADME, organism-based; settings: read-out: Ct
[36] = Sub-acute toxicity in Kunming mouse assessed as change UREAL level at 100 to 300 mg/kg administered via gavage for 14 days; assay type: organism-based; settings: in vivo, po, 336 h, dose 100-300 mg/kg, time 14 day
MDA-MB-436 [37] = assay: Antitumor activity against human MDA-MB-436 cells xenografted in female NOD/SCID mouse assessed as tumor regression rate at 1 mg/kg, po administered once every other day for 28 days relative to control; assay type: functional; settings: time 28.0 day
[38] = Sub-acute toxicity in Kunming mouse assessed as change UREAL level at 30 to 100 mg/kg administered via gavage once a day for 14 days; assay type: organism-based; settings: in vivo, po, 336 h, dose 30-100 mg/kg, time 14 day
[39] = Acute toxicity in Kunming mouse assessed as change in cellular morphology of liver at 100 mg/kg administered once a day via gavage for 14 days by H and E staining based analysis; assay type: organism-based; settings: in vivo, po, 336 h, time 14 day
[40] = AUC(0 to t) in male Balb/c mouse at 1 mg/kg, iv measured upto 96 hrs by LC-MS/MS analysis; assay type: ADME, organism-based; settings: male, Balb/c, in vivo
[41] = Tmax in male Balb/c mouse at 1 mg/kg, iv measured upto 96 hrs by LC-MS/MS analysis; assay type: ADME, organism-based; settings: in vivo
[42] = Acute toxicity in Kunming mouse assessed as change in cellular morphology of heart at 100 mg/kg administered once a day via gavage for 14 days by H and E staining based analysis; assay type: organism-based; settings: in vivo, po, 336 h, time 14 day
[43] = Sub-acute toxicity in Kunming mouse assessed as change ALTL level at 100 to 300 mg/kg administered via gavage for 14 days; assay type: organism-based; settings: in vivo, po, 336 h, dose 100-300 mg/kg, time 14 day
[44] = Sub-acute toxicity in Kunming mouse assessed as change ASTL level at 30 to 100 mg/kg administered via gavage once a day for 14 days; assay type: organism-based; settings: in vivo, po, 336 h, dose 30-100 mg/kg, time 14 day
[45] = AUC(0 to t) in male Balb/c mouse at 1 mg/kg, po measured upto 96 hrs by LC-MS/MS analysis; assay type: ADME, organism-based; settings: male, Balb/c, in vivo
MDA-MB-436 [46] = assay: Antitumor activity against luciferase tagged human MDA-MB-436 cells xenografted in female NOD-SCID mouse assessed as median survival time at 3 mg/kg, po administered once a day for 34 days; assay type: functional; settings: time 34 day

CNC(=O)c1ccc(N2CCN(Cc3ccc4nc(C)c(=O)[nH]c4c3F)CC2)c(F)n1 [AZD-9574]
Activity [1]: Non-toxic | Activity [2]: Non-toxic | half-life [3]: 529 min | Activity [4]: Non-toxic | Activity [5]: Non-toxic | Vz [6]: 3.03 L/kg | Activity [7]: Non-toxic | Vd [8]: 3.64 L/kg | concentration at 6 h [9]: 48 ng/g | half-life [10]: 880 min | Activity [11]: Non-toxic | concentration at 1 h [12]: 412 ng/g | Cmax [13]: 594 ng/mL | inhibition [14]: 63.7% | Tmax [15]: 19.8 min | Cmax [16]: 941 ng/mL | Activity [17]: Non-toxic | bioavailability [18]: 85.5% | Activity [19]: Non-toxic | Activity [20]: Non-toxic | Activity [21]: Non-toxic | inhibition [22]: 38.1% | Activity [23]: Non-toxic | Activity [24]: Non-toxic | Activity [25]: Non-toxic | IC50 (MDA-MB-436 [26]): 6.7 nM | Activity [27]: Non-toxic | clearance [28]: 3.17 mL/min/kg | concentration at 1 h [29]: 3780 ng/mL | Activity [30]: Non-toxic | CL/F [31]: 4 mL/min/kg | Activity [32]: Non-toxic | Activity [33]: Non-toxic | Activity [34]: Non-toxic | concentration at 6 h [35]: 186 ng/mL | Activity [36]: Non-toxic | Activity (MDA-MB-436 [37]): inactive | Activity [38]: Non-toxic | Activity [39]: Non-toxic | AUC(0-t) at 96 h [40]: 4890 ng·h/mL | Tmax [41]: 4.8 min | Activity [42]: Non-toxic | Activity [43]: Non-toxic | Activity [44]: Non-toxic | AUC(0-t) at 96 h [45]: 4180 ng·h/mL | Survival (MDA-MB-436 [46]): >65 days
